Among the test systems are DLD-1 colon; DMS 273 small cell lung; KM12 colon; M14 melanoma; OVCAR-5 ovarian; RPMI-8226 leukemia; SF-268 CNS; TK-10 renal; UACC-62 melanoma; NCI/ADR-RES ovarian.
Common to all, as to test: growth of human tumour cells (NCI), 48 h

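Test compounds were applied to cells in 96-well plates for 48 hours at 5 doses. Here, GI50 denotes the concentration required for 50% inhibition of growth. TGI: total growth inhibition.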 Some results are limits rather than exact numbers.

Take `CCCCCCCCCCCCCCCCc1c(C(=O)OC)[nH]c(=S)[nH]c1=O`: the TGI in the test with DLD-1 colon, in the test on DMS 273 small cell lung, with KM12 colon, in the test on M14 melanoma, in the test on OVCAR-5 ovarian and with RPMI-8226 leukemia was above 50 µM each time. The TGI in the test with SF-268 CNS, in the test on TK-10 renal and in the test on UACC-62 melanoma was above 50 µM throughout.

In the case of `CCCCCCCCC(=O)CCCCCCCCC(=O)O`, the TGI with DLD-1 colon is 40.1 µM; with DMS 273 small cell lung, 75.7 µM; with KM12 colon it was 32 µM; in the test on M14 melanoma, 82.8 µM; in the test on OVCAR-5 ovarian it was 55.3 µM; in the test with RPMI-8226 leukemia, 51.2 µM. In addition, the results for the TGI with SF-268 CNS, in the test on TK-10 renal and in the test on UACC-62 melanoma were above 100 µM, above 100 µM and 54.6 µM, respectively.

For `CC1=C(C)C(=O)c2c(cc3c4ccccc4ccn23)C1=O`, the TGI in the test with DLD-1 colon, in the test with DMS 273 small cell lung, in the test with KM12 colon, in the test with M14 melanoma, with RPMI-8226 leukemia and with TK-10 renal was above 100 µM throughout. The compound further came in with a TGI with UACC-62 melanoma above 100 µM.

Regarding `CC(=O)c1cc2c3c(c1)c1cc4c(cc1c(=O)n3CC2)OCO4`, the TGI in the test with DLD-1 colon, with DMS 273 small cell lung, with KM12 colon, in the test on M14 melanoma, in the test on OVCAR-5 ovarian and with RPMI-8226 leukemia was above 100 µM in each case. For the same compound, the TGI with TK-10 renal was above 100 µM; with UACC-62 melanoma, 53.9 µM.

Consider `O=[N+]([O-])c1ccccc1S(=O)(=O)c1ccccc1[N+](=O)[O-]`, for which the TGI with DLD-1 colon, with DMS 273 small cell lung, with KM12 colon, in the test with M14 melanoma, in the test with NCI/ADR-RES ovarian and in the test on OVCAR-5 ovarian was above 100 µM throughout. In addition, the TGI was above 100 µM in the test with RPMI-8226 leukemia, above 89.3 µM in the test with SF-268 CNS, above 56.2 µM in the test on TK-10 renal and above 100 µM in the test with UACC-62 melanoma.

For `COc1ccc(C2Cc3cc(OC)c(OC)c(OC)c3C2=O)cc1` (stereo unspecified), the TGI in the test with DLD-1 colon, in the test with DMS 273 small cell lung, in the test on KM12 colon, in the test on M14 melanoma, in the test on OVCAR-5 ovarian and in the test on RPMI-8226 leukemia was above 100 µM in each case. Besides, the TGI in the test with SF-268 CNS, in the test with TK-10 renal and with UACC-62 melanoma was above 100 µM in each case.

As for `COC(=O)C1C2CC3C(OC(=O)C31)C2I` (stereo unspecified), the TGI with DMS 273 small cell lung, with KM12 colon, in the test with M14 melanoma, in the test on OVCAR-5 ovarian, in the test with RPMI-8226 leukemia and with SF-268 CNS was above 100 µM each time. Moreover, the TGI was above 10 µM with TK-10 renal and above 100 µM with UACC-62 melanoma.

With `C=CCOC1=C2CC[C@H](O)[C@@]2(C)CCC1=O`, the TGI with DLD-1 colon, in the test on DMS 273 small cell lung, with KM12 colon, in the test with M14 melanoma, in the test with OVCAR-5 ovarian and in the test with RPMI-8226 leukemia was above 100 µM in each case. Moreover, the TGI in the test with SF-268 CNS, in the test with TK-10 renal and with UACC-62 melanoma was above 100 µM in each case.

In the case of `CCC1(O)C(=O)OCc2c1cc1n(c2=O)Cc2c-1nc1ccccc1c2OC` (stereo unspecified), the TGI with DLD-1 colon is above 100 µM; in the test on DMS 273 small cell lung, 0.108 µM; with KM12 colon it was 10.8 µM; in the test on M14 melanoma, 0.445 µM; with OVCAR-5 ovarian, 27.4 µM; in the test on RPMI-8226 leukemia it was 0.511 µM. Moreover, the values for the TGI in the test with SF-268 CNS, with TK-10 renal and with UACC-62 melanoma were 2.31 µM, above 100 µM and 0.413 µM, respectively.

As for `CCOC(=O)/C(=C/c1cc(OC)ccc1OC)CC(=O)O`, the TGI was above 31.6 µM in the test with DLD-1 colon; above 100 µM with DMS 273 small cell lung; above 100 µM in the test on KM12 colon; above 100 µM in the test on M14 melanoma; above 31.6 µM with RPMI-8226 leukemia; above 100 µM in the test on SF-268 CNS. Moreover, the TGI in the test on TK-10 renal and in the test with UACC-62 melanoma was above 100 µM in each case.

Turning to `CC(=O)NC(ON1C(=O)COc2ccccc21)C(Cl)(Cl)Cl` (stereo unspecified), the TGI with DLD-1 colon, in the test with DMS 273 small cell lung, with KM12 colon, with M14 melanoma, in the test on OVCAR-5 ovarian and in the test with RPMI-8226 leukemia was above 100 µM throughout. In addition, the TGI with SF-268 CNS, in the test with TK-10 renal and in the test with UACC-62 melanoma was above 100 µM each time.

In the case of `NC1=NN(c2ccccc2)C(=O)C1C(=O)C(=O)NC1C2CC3CC(C2)CC1C3` (stereo unspecified), the TGI in the test with DLD-1 colon, with DMS 273 small cell lung, with KM12 colon, with M14 melanoma, in the test on OVCAR-5 ovarian and in the test on SF-268 CNS was above 100 µM throughout. For the same compound, the TGI with TK-10 renal and in the test with UACC-62 melanoma was above 100 µM throughout.

As for `Cc1ccc(NC(=O)C2C(=O)C(=O)N(c3ccc(C)cc3)C2=O)cc1` (stereo unspecified), the TGI in the test on DLD-1 colon, with KM12 colon, with M14 melanoma, with OVCAR-5 ovarian, in the test on SF-268 CNS and with TK-10 renal was above 100 µM each time. In the test with UACC-62 melanoma, this compound gave a TGI above 100 µM.

Turning to `O=C(/C=C/c1ccccc1Cl)c1ccc(O)cc1`, the GI50 in the test on KM12 colon is 3.57 µM; in the test with M14 melanoma, 10.6 µM; in the test with NCI/ADR-RES ovarian, 16.4 µM; in the test with OVCAR-5 ovarian it was 19.8 µM; in the test on RPMI-8226 leukemia, 0.495 µM; in the test on SF-268 CNS it was 8.91 µM. Moreover, the GI50 in the test on TK-10 renal was 18.1 µM; in the test on UACC-62 melanoma, 7.88 µM. Also, the TGI in the test with KM12 colon was 11.6 µM; in the test on M14 melanoma, 24.6 µM; with NCI/ADR-RES ovarian, above 70.6 µM; with OVCAR-5 ovarian, 37.4 µM; in the test with RPMI-8226 leukemia, 3.39 µM; in the test on SF-268 CNS it was 25.3 µM. For the same compound, the TGI in the test on TK-10 renal turned out to be 32.4 µM; in the test on UACC-62 melanoma, 21.8 µM.

These data come from PubChem BioAssay (NCI).
